Data reported in patent US20070185013A1, “Use of chk1 inhibitors to control cell proliferation” (ICOS CORPORATION, priority 2003, published 2007).
Entries after “also recorded” stand apart in the source; their conditions may differ.

How the values were obtained:
Chk1 = Chk1 serine 296 phosphorylation, Western blot in HT29 cells; format: cell-based, human; settings: HT29 cells, 20 μM gemcitabine for two hours, 22 additional hours
Description: Phosphorylation at this site is not inhibited by Wortinannin, which inhibits Atm and Atr. Therefore the phosphorylation of serine 296 is distinct from phosphorylation at serines 317 and 345 described in Example 12. […] Therefore, this approach may be used to monitor Chk1 activity in tumors in response to Chk1 activators. Further, this approach may be used to measure inhibition of Chk1 activation by Chk1 inhibitors.
Thus, HT 29 cells were treated with 20 μM gemcitabine for two hours. The gemcitabine was washed out of the cell growth media and cells were incubated for 22 additional hours. Protein lysates were prepared and separated by an SDS-polyacrylamide gel electrophoresis. Proteins were transferred to polyvinylidene fluoride (PVDF) membranes and probed with antisera (Cell Signalling) specific for phosphorlyated serine 296 (Cell Signalling). […] Further, HT29 cells treated with selective Chk1 inhibitors for 15 minutes show no serine 296 phosphorylation.

H460 tumor cells = experiment: H460 non-small cell lung tumor xenograft model, tumor volume (Example 1); format: in vivo, mice; settings: gemcitabine alone, 160 mg/kg q3d×3
From the text: A method of the invention provided an improved antiproliferative effect over co-administration in an art-recognized […] tumor model. In the experiment, gemcitabine was used as the Chk1 activator and a diaryl urea compound according to Keegan et al., PCT/US02/06452, was used as the selective Chk1 inhibitor. (The same Chk1 inhibitor was used in the examples 2-11.) The target phase of gemcitabine is the S phase of the cell cycle. A non-small cell lung tumor xenograft tumor model, H460, was the art-recognized […] tumor model.
Nude mice were engrafted with H460 tumor cells and allowed to grow to an average of 75 mm3. Tumor-bearing mice were then treated with vehicle, gemcitabine or gemcitabine plus 400 mg/kg selective Chk1 inhibitor. The gemcitabine was administered at a dose of 160 mg/kg q3d×3 either simultaneously with the Chk1 inhibitor (co-administration) or, according to the invention, 18 hours prior to the Chk1 inhibitor to allow for S phase synchronization.
Tumors were measured every 2-3 days. On day 10, the median tumor volume for the vehicle group was 10 times the starting volume, while the gemcitabine alone group was four times the starting volume. The tumor volume for the gemcitabine plus Chk1 inhibitor co-administration group was also four times the starting volume. […]

tumor cells = experiment: Cell-based proliferation (sensitization) assay (Example 2); settings: ratio of GI90 of the chemotherapy agent in absence to that in presence of Chk1 inhibitor
Description: Chk1 inhibitors were tested in a cell-based proliferation assay for the ability to sensitize tumor cells to ionizing radiation or chemotherapy agents. Chk1 inhibitors were tested in combination with 5-FU, gemicitabine, ionizing radiation, camptothecin, etoposide, hydroxyurea, cisplatin, fludarabine, Ara-C and aphidicolin. For each experiment, a serial dilution of each compound in combination with a ten-point dilution of each chemotherapy agent was included, in order to determine the concentration of chemotherapeutic required to inhibit the growth of 90% (GI90) of the cells in the presence and absence of the Chk1 inhibitor. This ratio of GI90 in the absence of Chk1 inhibitor to that in the presence of Chk1 inhibitor is called the “fold sensitization.” Fold sensitization was plotted as a function of Chk1 inhibitor concentration and the amount of drug required to yield two-fold sensitization was calculated. […] Another parameter analyzed was the fold sensitization achieved at the LD50 (the dose of compound alone that inhibits growth of 50% of cells) for the compound. These two values allow direct ranking of both the potency and toxicity of Chk1 inhibitors with respect to one another.

HT29 tumors [1] = experiment: H3-P mitotic index assay in HT29 tumors; format: in vivo, mice; settings: for mitotic index (H3-P): 100 mg/kg gemcitabine i.p.
Description: Chem. 271:13197-201. 1996; Goto et al., J Biol Chem. 274:25543-9, 1999). The assay protocol was as follows. Tumors from rodents treated or untreated with Chk1 activator (in the present study, chemotherapy agent) and/or Chk1 inhibitor, were excised and paraffin embedded. The tumors are cut into 6 micron thick slices and mounted on glass slides. […] The slides are then heated to 95° C. in 10 mM sodium citrate for 10 minutes followed by a 20 minute cooling step. The slides are blocked for 30 minutes with Block buffer (20% normal human serum and 2% bovine serum albumin in phosphate buffered saline containing 0.05% Triton X-100 (PBST)). The anti-phospho histone H3 antibody (Upstate Biotech, Cat. #06-570) is diluted 1:200 in the Block buffer and incubated with the slides for one hour. The slides are washed 3 times 5 minutes in PBST. The secondary antibody, donkey anti-rabbit rhodamine (Jackson, cat #711-295-152) was added for 30 minutes. The slides were then washed twice in PBST and […] of […] DAPI (Sigma) in PBS is added and allowed to stain for 30 minutes. The slides were then washed two more times in PBST and mounted with Vectashield (Vector, cat # H-1400). Slides were viewed using fluorescence microscopy. The percentage of cells stained with H3-P antibody relative to total (DAPI stained) cells were quantified using Metamorph software (Universal Imaging Corporation, Version 4.6). […] Tumors from these animals were resected, paraffin embedded and stained with an antibody to H3-P followed by a counter-stained with DAPI. The percentage of mitotic cells (positive to H3-P) was quantified at each time point. […] To determine whether checkpoint abrogation by selective Chk1 inhibitor was dose-dependent, HT29 tumor-bearing mice were pretreated with gemcitabine and 32 hours later dosed with increasing doses of selective Chk1 inhibitor. After 18 hours, tumors were harvested and stained for H3-P as described above. […] The response is saturated at 400 mg/kg.

HT29 tumors [2] = experiment: Rb-Pser795 S phase marker staining of HT29 tumors; format: in vivo, mice; settings: 100 mg/kg gemcitabine i.p., 1 to 72 hr
From the text: To confirm that low H3-P staining corresponds to S phase arrest, tumors were also stained with an S phase marker, phosphorylated Rb-Pser795. Tumor slices taken in the experiment above were stained with the Rb-Pser795 antibody (Cell Signaling Cat# 9301S) and the number of positive staining cells quantified.

With `Nc1ccn([C@@H]2O[C@H](CO)[C@@H](O)C2(F)F)c(=O)n1` [gemcitabine] as the molecule, how does the “phosphorylation of Chk1 serine 296” value (Chk1) read?
Its value is “stimulated; also recorded: results in the phosphorylation of serine 296”.

And the “median tumor volume on day 10” value (H460 tumor cells)?
The value was “four”.

What about the “Fold Sensitization to Agent by Chk1 Inhibitor” value (tumor cells) of the same molecule?
The value was 12 fold.

And the “mitotic cells (H3-P positive)” value (HT29 tumors [1]; 100 mg/kg gemcitabine for 48 hours alone)?
Its value is “approximately 4%”.

And the “mitotic index (H3-P)” value (HT29 tumors [1]; 1-6 hr time points)?
Its value is “approximately 3”.

And the “mitotic index (H3-P)” value (HT29 tumors [1]; between 12 and 24 hr after administration)?
Its value is “approximately 1.5”.

What about the “time of lowest H3-P staining” value (HT29 tumors [1]; HT29, treated with gemcitabine) of the same molecule?
Its value is 48 h.

And the “time of optimal S phase arrest post-gemcitabine treatment” value (HT29 tumors [1]; HT29 tumors, from H3-P and Rb-Pser795 staining)?
Its value is 24 to 48 h.

And the Rb-P staining cells (HT29 tumors [2])?
The Rb-P staining cells was “more Rb-P staining cells at, 24, 48 and 72 hours than at earlier timepoints”.
